In article doi:10.1101/2023.10.20.563248v1 (biorxiv, 2023):

What was measured:
Conditions in all cases: 1 µM; inhibitor
ACVR1B = ACVR1B (Homo sapiens, UniProt P36896)
EPHA2 = EPHA2 (Homo sapiens, UniProt P29317)
CLK3 = CLK3 (Homo sapiens, UniProt P49761)
PKA = PKA (Homo sapiens, UniProt P17612)
MST1 = MST1 (Homo sapiens, UniProt Q13043)
CDK9 = CDK9 (Homo sapiens, UniProt P50750)
CDK16 = CDK16 (Homo sapiens, UniProt Q00536)
PRKG2 = PRKG2 (Homo sapiens, UniProt Q13237)
MARK2 = MARK2 (Homo sapiens, UniProt Q7KZI7)
PKCt = PKCt (Homo sapiens, UniProt Q04759)
ACVR1 = ACVR1 (Homo sapiens, UniProt Q04771)
BMX = BMX (Homo sapiens, UniProt P51813)
FGFR3 = FGFR3 (Homo sapiens, UniProt P22607)
DYRK1A = DYRK1A (Homo sapiens, UniProt Q13627)
TBK1 = TBK1 (Homo sapiens, UniProt Q9UHD2)
RPS6KB1 = RPS6KB1 (Homo sapiens, UniProt P23443)
PDGFRb = PDGFRb (Homo sapiens, UniProt P09619)
NIK = NIK (Homo sapiens, UniProt Q99558)
GSK3A = GSK3A (Homo sapiens, UniProt P49840)
RON = RON (Homo sapiens, UniProt Q04912)
MARK3 = MARK3 (Homo sapiens, UniProt P27448)
EPHA7 = EPHA7 (Homo sapiens, UniProt Q15375)
MKNK1 = MKNK1 (Homo sapiens, UniProt Q9BUB5)
CK1d = CK1d (Homo sapiens, UniProt P48730)
ERBB4 = ERBB4 (Homo sapiens, UniProt Q15303)
NEK7 = NEK7 (Homo sapiens, UniProt Q8TDX7)
WEE1 = WEE1 (Homo sapiens, UniProt P30291)
RIPK4 = RIPK4 (Homo sapiens, UniProt P57078)
PKCz = PKCz (Homo sapiens, UniProt Q05513)
RIPK2 = RIPK2 (Homo sapiens, UniProt O43353)
SGK1 = SGK1 (Homo sapiens, UniProt O00141)

Sequence of MARK2 (Q7KZI7 whole entry): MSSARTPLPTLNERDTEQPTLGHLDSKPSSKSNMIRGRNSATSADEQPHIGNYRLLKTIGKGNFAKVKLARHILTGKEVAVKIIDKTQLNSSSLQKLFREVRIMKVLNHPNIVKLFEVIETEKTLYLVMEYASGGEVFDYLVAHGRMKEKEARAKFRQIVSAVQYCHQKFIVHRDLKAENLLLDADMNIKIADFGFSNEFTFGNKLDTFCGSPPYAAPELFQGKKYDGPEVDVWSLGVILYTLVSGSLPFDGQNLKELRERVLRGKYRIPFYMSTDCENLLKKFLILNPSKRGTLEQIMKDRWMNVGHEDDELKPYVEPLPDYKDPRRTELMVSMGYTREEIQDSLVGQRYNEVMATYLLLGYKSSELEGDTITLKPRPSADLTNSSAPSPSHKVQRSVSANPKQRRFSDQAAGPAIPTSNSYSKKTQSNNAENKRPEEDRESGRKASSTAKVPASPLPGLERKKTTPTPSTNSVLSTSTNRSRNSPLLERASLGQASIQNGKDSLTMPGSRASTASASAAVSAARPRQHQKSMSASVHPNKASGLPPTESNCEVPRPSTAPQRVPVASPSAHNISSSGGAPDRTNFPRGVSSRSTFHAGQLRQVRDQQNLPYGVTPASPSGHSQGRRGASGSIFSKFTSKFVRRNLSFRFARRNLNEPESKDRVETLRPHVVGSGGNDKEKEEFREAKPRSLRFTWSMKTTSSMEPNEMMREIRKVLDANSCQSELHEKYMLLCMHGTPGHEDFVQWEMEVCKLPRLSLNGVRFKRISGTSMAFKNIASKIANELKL
Sequence of EPHA7 (Q15375 whole entry): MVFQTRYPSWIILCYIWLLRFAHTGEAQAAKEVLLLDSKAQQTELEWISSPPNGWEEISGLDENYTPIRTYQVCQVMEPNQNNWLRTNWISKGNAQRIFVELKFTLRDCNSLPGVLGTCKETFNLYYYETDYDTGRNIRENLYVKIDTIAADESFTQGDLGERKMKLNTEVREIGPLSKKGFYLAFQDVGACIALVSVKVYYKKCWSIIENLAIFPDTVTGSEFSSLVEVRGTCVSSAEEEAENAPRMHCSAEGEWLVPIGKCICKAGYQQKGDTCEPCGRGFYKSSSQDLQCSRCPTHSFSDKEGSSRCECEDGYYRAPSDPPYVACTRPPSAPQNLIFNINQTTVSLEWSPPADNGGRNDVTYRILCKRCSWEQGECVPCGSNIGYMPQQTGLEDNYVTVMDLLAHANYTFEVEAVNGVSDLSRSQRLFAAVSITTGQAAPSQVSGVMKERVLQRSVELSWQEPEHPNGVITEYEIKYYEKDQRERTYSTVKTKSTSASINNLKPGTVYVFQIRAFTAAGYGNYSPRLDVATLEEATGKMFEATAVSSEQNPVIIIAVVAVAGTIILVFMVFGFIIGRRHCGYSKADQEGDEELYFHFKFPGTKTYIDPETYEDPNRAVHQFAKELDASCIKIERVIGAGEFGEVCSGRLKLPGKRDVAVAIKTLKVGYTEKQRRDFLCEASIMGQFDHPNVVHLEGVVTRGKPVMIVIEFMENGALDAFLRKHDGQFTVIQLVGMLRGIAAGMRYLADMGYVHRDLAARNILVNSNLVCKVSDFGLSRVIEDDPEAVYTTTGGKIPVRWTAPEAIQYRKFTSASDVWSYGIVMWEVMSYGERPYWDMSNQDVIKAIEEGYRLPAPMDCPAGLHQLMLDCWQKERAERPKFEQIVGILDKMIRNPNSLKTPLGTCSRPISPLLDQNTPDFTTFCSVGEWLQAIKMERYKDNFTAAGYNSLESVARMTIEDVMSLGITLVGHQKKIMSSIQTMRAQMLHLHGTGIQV
Sequence of ACVR1 (Q04771 whole entry): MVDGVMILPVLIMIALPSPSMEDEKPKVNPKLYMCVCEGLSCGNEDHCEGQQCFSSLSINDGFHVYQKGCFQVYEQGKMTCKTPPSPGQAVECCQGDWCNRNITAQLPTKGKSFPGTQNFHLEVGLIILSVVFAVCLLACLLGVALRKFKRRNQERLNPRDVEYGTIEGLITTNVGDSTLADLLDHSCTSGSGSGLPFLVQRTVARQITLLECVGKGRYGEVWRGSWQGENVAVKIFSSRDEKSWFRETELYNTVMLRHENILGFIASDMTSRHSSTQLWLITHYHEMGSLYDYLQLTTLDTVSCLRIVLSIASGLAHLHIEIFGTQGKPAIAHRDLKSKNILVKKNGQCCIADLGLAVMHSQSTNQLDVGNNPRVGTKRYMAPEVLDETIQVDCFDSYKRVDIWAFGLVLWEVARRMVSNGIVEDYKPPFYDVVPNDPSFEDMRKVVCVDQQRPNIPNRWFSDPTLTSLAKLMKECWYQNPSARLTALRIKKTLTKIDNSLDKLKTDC
Sequence of PDGFRb (P09619 whole entry): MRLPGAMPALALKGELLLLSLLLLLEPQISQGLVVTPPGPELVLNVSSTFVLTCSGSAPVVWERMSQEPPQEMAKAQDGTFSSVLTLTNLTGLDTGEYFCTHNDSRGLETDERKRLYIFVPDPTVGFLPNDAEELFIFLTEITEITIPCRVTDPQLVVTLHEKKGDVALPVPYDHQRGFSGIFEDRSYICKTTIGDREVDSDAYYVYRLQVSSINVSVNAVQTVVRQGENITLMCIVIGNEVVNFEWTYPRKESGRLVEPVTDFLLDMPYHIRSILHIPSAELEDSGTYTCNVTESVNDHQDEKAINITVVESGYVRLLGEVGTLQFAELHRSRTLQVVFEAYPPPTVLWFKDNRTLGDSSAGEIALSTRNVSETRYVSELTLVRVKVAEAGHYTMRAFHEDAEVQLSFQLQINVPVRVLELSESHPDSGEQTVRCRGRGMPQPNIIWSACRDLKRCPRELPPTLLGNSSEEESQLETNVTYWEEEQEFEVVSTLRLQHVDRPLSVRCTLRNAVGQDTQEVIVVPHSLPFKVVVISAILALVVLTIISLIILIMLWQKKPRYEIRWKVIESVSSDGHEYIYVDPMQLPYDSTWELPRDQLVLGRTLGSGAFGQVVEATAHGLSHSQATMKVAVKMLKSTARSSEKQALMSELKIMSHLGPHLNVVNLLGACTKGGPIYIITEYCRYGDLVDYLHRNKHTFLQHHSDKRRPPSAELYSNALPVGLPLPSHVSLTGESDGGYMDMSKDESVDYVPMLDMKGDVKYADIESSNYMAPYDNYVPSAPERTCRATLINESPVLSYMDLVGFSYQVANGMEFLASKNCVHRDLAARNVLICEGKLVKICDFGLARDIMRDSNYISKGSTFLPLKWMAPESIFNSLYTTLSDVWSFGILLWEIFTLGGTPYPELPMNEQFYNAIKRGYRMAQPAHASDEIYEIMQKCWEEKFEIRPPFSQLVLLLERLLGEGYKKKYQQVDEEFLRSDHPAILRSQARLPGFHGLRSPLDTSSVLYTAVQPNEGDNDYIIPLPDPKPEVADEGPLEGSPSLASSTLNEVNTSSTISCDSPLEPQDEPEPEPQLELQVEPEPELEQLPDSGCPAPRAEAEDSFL
Sequence of NEK7 (Q8TDX7 whole entry): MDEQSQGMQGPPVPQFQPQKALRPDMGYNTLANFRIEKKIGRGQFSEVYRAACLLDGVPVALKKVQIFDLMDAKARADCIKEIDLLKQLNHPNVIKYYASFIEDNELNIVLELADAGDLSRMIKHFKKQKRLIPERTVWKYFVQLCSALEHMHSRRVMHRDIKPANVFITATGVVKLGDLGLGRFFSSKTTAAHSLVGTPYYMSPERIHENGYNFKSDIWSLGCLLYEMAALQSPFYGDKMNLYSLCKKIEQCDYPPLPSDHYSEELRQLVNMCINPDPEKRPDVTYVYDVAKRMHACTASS
Sequence of MKNK1 (Q9BUB5 whole entry): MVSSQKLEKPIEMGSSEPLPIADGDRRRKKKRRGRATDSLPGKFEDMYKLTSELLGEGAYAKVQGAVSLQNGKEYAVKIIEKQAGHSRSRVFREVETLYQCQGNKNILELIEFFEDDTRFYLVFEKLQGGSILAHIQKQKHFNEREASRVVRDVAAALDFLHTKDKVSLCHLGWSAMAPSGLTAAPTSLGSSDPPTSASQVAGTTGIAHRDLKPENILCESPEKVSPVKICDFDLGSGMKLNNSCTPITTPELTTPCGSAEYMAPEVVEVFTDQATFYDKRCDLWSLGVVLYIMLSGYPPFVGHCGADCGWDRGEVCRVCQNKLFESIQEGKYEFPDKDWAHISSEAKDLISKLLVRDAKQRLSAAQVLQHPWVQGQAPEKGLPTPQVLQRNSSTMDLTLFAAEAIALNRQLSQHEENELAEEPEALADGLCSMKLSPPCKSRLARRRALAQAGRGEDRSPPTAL
Sequence of ACVR1B (P36896 whole entry): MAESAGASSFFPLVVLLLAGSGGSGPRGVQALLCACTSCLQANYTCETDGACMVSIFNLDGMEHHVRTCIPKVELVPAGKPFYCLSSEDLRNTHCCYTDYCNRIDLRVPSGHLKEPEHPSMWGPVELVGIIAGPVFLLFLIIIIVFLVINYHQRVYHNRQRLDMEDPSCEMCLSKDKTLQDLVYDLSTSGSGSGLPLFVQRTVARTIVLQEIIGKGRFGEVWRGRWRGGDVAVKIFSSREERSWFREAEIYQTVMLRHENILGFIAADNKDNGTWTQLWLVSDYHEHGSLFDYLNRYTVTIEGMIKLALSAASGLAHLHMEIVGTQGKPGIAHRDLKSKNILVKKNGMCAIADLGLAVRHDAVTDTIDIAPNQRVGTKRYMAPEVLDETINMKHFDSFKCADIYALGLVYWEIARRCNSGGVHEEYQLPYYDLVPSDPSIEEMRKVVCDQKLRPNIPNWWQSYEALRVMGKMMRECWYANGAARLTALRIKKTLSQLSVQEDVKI
Sequence of CDK9 (P50750 whole entry): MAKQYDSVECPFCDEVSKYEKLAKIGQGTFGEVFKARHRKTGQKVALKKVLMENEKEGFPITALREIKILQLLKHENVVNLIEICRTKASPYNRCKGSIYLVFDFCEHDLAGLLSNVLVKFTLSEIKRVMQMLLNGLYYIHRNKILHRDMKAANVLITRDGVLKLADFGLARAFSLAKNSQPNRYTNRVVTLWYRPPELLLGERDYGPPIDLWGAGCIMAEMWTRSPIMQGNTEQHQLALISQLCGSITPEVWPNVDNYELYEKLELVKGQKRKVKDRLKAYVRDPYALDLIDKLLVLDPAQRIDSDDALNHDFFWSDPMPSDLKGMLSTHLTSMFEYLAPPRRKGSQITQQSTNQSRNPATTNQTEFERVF

21c Remaining activity, percent of control [%] (ACVR1B): 85.2% | 21c Remaining activity, percent of control [%] (EPHA2): 82.5% | 21c Remaining activity, percent of control [%] (CLK3): 88.6% | 21c Remaining activity, percent of control [%] (PKA): 96.3% | 21c Remaining activity, percent of control [%] (MST1): 105.6% | 21c Remaining activity, percent of control [%] (CDK9): 83.3% | 21c Remaining activity, percent of control [%] (CDK16): 94.1% | 21c Remaining activity, percent of control [%] (PRKG2): 93.5% | 21c Remaining activity, percent of control [%] (MARK2): 98.8% | 21c Remaining activity, percent of control [%] (PKCt): 42.6% | 21c Remaining activity, percent of control [%] (ACVR1): 81.0% | 21c Remaining activity, percent of control [%] (BMX): 84.8% | 21c Remaining activity, percent of control [%] (FGFR3): 99.8% | 21c Remaining activity, percent of control [%] (DYRK1A): 82.2% | 21c Remaining activity, percent of control [%] (TBK1): 111.6% | 21c Remaining activity, percent of control [%] (RPS6KB1): 86.2% | 21c Remaining activity, percent of control [%] (PDGFRb): 71.2% | 21c Remaining activity, percent of control [%] (NIK): 68.5% | 21c Remaining activity, percent of control [%] (GSK3A): 67.3% | 21c Remaining activity, percent of control [%] (RON): 94.5% | 21c Remaining activity, percent of control [%] (MARK3): 101.1% | 21c Remaining activity, percent of control [%] (EPHA7): 103.7% | 21c Remaining activity, percent of control [%] (MKNK1): 97.3% | 21c Remaining activity, percent of control [%] (CK1d): 98.8% | 21c Remaining activity, percent of control [%] (ERBB4): 90.7% | 21c Remaining activity, percent of control [%] (NEK7): 98.8% | 21c Remaining activity, percent of control [%] (WEE1): 88.0% | 21c Remaining activity, percent of control [%] (RIPK4): 101.1% | 21c Remaining activity, percent of control [%] (PKCz): 96.3% | 21c Remaining activity, percent of control [%] (RIPK2): 105.0% | 21c Remaining activity, percent of control [%] (SGK1): 90.0%
Structure (SMILES): O=C1NCCCCCNc2nc(c3ccccc3n2)Nc2cc1[nH]n2 [21c, (Z)-3^1H-2,5,11-triaza-1(4,2)-quinazolina-3(3,5)-pyrazolacycloundecaphan-4-one]
